Read-outs that look alike come from different tables or passages of the source.
What was measured:
Assay type in all cases: cell-based
[1] = tested on: Leishmania donovani axenic amastigote; assay: In vitro assay for growth inhibition of Leishmania donovani axenic amastigote (Cell TiterGlo luminescence); conditions: Leishmania donovani, L. donovani axenic amastigotes in vitro; read-out: L. donovani amastigotes EC50
Outline: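 Compound-treated wells received 9600 axenic amastigotes in RPMI 1640-based medium at pH 5.5 (37 °C, 5% CO2). Growth measured as ATP luminescence (CellTiter-Glo) after 2-day incubation; DMSO and reference compounds served as controls.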

[2] = tested on: L. donovani HU3 strain in mouse peritoneal macrophages; assay: Assay for inhibition of parasitemia of Leishmania donovani in mouse macrophages (SYBR Green nuclei count, high-content imaging); conditions: Leishmania donovani, Peritoneal macrophage, L. donovani in mouse peritoneal macrophages; read-out: L. donovani in Mouse Macrophages EC50
Outline: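 Parasite numbers were counted from SYBR Green-stained nuclei imaged by high-content microscopy after paraformaldehyde fixation and Triton permeabilization. Before this, compound was applied for 5 days at 37° C to BALB/c peritoneal macrophages (2×10^4/well) that had been exposed 24 h to 4×10^5 L. donovani HU3 amastigotes harvested from infected mouse spleens.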

[3] = tested on: Trypanosoma cruzi amastigotes cultured in 3T3 fibroblast cells; assay: Assay for growth inhibition of kinetoplastid parasite Trypanosoma cruzi (beta-galactosidase Tulahuen strain, CPRG readout); conditions: Trypanosoma cruzi, Fibroblast, T. cruzi amastigotes in 3T3 fibroblast cells; read-out: Buckner infectious T. cruzi EC50
Outline: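 3T3 fibroblasts (1,000 cells/well) plated overnight, treated with compound in DMSO, then infected with 10,000 Lac-Z-expressing Tulahuen trypomastigotes. After 6 days, 0.6 mM CPRG with 0.6% NP-40 added for 2 h at room temperature; absorbance gives relative intracellular amastigote numbers. Benznidazole and nifurtimox serve as positive controls.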

[4] = tested on: Trypanosoma brucei brucei (Lister 427) strain; assay: Assay for growth inhibition against Trypanosoma brucei brucei (Cell TiterGlo ATP luminescence); conditions: T. brucei brucei (Lister 427), read-out: T. Brucei (HAT) EC50
Outline: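 Growth read-out is cellular ATP by CellTiter-Glo luminescence, measured 30 min after reagent addition, following 2-day incubation at 37 °C in CO2. Parasites (10,000/mL, HMI-9 plus 10% FBS and 10% serum plus) faced 10 threefold dilutions in duplicate; IC50 taken as 50% growth inhibition versus untreated.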

Structure (SMILES) | EC50 [1] | EC50 [2] | EC50 [3] | EC50 ([4]; Trypanosoma brucei) | EC50 [4]
O=C(Nc1ccc(F)c(-n2cc3cc(N4CC(C(F)(F)F)C4)cnc3n2)c1)N1CC(F)C1 [Compound 265, 3-fluoro-N-(4-fluoro-3-(5-(3-(trifluoromethyl)azetidin-1-yl)-2H-pyrazolo[3,4-b]pyridin-2-yl)phenyl)azetidine-1-carboxamide] | 3 nM | 4 nM | 2 nM | 1 nM | 
N#CC1CN(c2cnc3nn(-c4cc(NC(=O)N5CC(F)C5)ccc4F)cc3c2)C1 [Compound 266, N-{3-[5-(3-cyanoazetidin-1-yl)-2H-pyrazolo[3,4-b]pyridin-2-yl]-4-fluorophenyl}-3-fluoroazetidine-1-carboxamide] | 8 nM | 29 nM | 65 nM | 5 nM | 
CC(=O)N1CCC1c1cnc2nn(-c3cc(NC(=O)N4CC(F)C4)ccc3F)cc2c1 (stereo not shown) [Compound 267, N-(3-(5-(1-acetylazetidin-2-yl)-2H-pyrazolo[3,4-b]pyridin-2-yl)-4-fluorophenyl)-3-fluoroazetidine-1-carboxamide] | 1710 nM | 13800 nM | 9400 nM | 81 nM | 
O=C(Nc1ccc(F)c(-n2cc3cc(N4CCNCC4)cnc3n2)c1)N1CC(F)C1 [Compound 270, 3-fluoro-N-{4-fluoro-3-[5-(piperazin-1-yl)-2H-pyrazolo[3,4-b]pyridin-2-yl]phenyl}azetidine-1-carboxamide] | 233 nM | 2170 nM | 1700 nM | 79 nM | 
O=C(Nc1ccc(F)c(-n2cc3cc(N4CC(C(F)(F)F)C4)cnc3n2)c1)N1CCC1 [Compound 274] | 2 nM | 3 nM | 1 nM | 1 nM | 
O=C(Nc1ccc(F)c(-n2cc3cc(N4CC(C(F)(F)F)C4)cnc3n2)c1)N1CC[C@@H](F)C1 [Compound 275] | 3 nM | 3 nM | 1 nM | 1 nM | 
O=C(Nc1ccc(F)c(-n2cc3cc(Cl)cnc3n2)c1)N1CC(F)C1 [Compound 276, N-(3-{5-chloro-2H-pyrazolo[3,4-b]pyridin-2-yl}-4-fluorophenyl)-3-fluoroazetidine-1-carboxamide] | 29 nM | 100 nM | 21 nM | 33 nM | 
Cc1nc(CO)c(C(=O)Nc2ccc(F)c(-n3cc4cc(-c5ncccc5C)cnc4n3)c2)o1 [Compound 277, N-(4-fluoro-3-(5-(3-methylpyridin-2-yl)-2H-pyrazolo[3,4-b]pyridin-2-yl)phenyl)-4-(hydroxymethyl)-2-methyloxazole-5-carboxamide] | 40 nM | 138 nM | 144 nM | 82 nM | 
O=C(Nc1ccnc(-n2cc3cc(N4CC(F)(F)C4)cnc3n2)c1)N1CCC1 [Compound 280, N-(2-(5-(3,3-difluoroazetidin-1-yl)-2H-pyrazolo[3,4-b]pyridin-2-yl)pyridin-4-yl)azetidine-1-carboxamide] | 33 nM | 28 nM | 48 nM | 40 nM | 
O=C(Nc1ccnc(-n2cc3cc(-c4ccccn4)cnc3n2)c1)N1CC(F)(F)C1 [Compound 281, 3,3-difluoro-N-(2-(5-(pyridin-2-yl)-2H-pyrazolo[3,4-b]pyridin-2-yl)pyridin-4-yl)azetidine-1-carboxamide] | 9 nM | 26 nM | 15 nM | 14 nM | 
O=C(Nc1ccnc(-n2cc3cc(N4CC5(CC5)C4)cnc3n2)c1)N1CCC1 [Compound 282, N-[2-(5-{5-azaspiro[2.3]hexan-5-yl}-2H-pyrazolo[3,4-b]pyridin-2-yl)pyridin-4-yl}azetidine-1-carboxamide] | 34 nM | 70 nM | 40 nM | 27 nM | 
O=C(Nc1ccc(Cl)c(-n2cc3cc(-c4ccccn4)cnc3n2)c1)N1CC(F)C1 [Compound 283, N-{4-chloro-3-[5-(pyridin-2-yl)-2H-pyrazolo[3,4-b]pyridin-2-yl]phenyl}-3-fluoroazetidine-1-carboxamide] | 7 nM | 19 nM | 5 nM | 8 nM | 
O=C(Nc1ccc(Cl)c(-n2cc3cc(N4CC(F)(F)C4)cnc3n2)c1)N1CCC1 [Compound 284, N-{4-chloro-3-[5-(3,3-difluoroazetidin-1-yl)-2H-pyrazolo[3,4-b]pyridin-2-yl]phenyl}azetidine-1-carboxamide] | 27 nM | 56 nM | 15 nM | 15 nM | 
O=C(Nc1ccc(Cl)c(-n2cc3cc(-c4ccccn4)cnc3n2)c1)N1CCC1 [Compound 285, N-{4-chloro-3-[5-(pyridin-2-yl)-2H-pyrazolo[3,4-b]pyridin-2-yl]phenyl}azetidine-1-carboxamide] | 4 nM | 9 nM | 3 nM | 4 nM | 
O=C(Nc1ccc(Cl)c(-n2cc3cc(N4CC5(CC5)C4)cnc3n2)c1)N1CCC1 [Compound 286, N-[3-(5-{5-azaspiro[2.3]hexan-5-yl}-2H-pyrazolo[3,4-b]pyridin-2-yl)-4-chlorophenyl]azetidine-1-carboxamide] | 25 nM | 47 nM | 14 nM | 30 nM | 
O=C(Nc1cccc(-n2cc3cc(N4CC5(CC5)C4)cnc3n2)c1)N1CCC1 [Compound 287, N-[3-(5-{5-azaspiro[2.3]hexan-5-yl}-2H-pyrazolo[3,4-b]pyridin-2-yl)phenyl]azetidine-1-carboxamide] | 21 nM | 30 nM | 21 nM | 10 nM | 
O=C(Nc1ccc(F)c(-n2cc3cc(N4CC(F)(F)C4)cnc3n2)c1)N1CCC1 [Compound 290, N-{3-[5-(3,3-difluoroazetidin-1-yl)-2H-pyrazolo[3,4-b]pyridin-2-yl]-4-fluorophenyl)azetidine-1-carboxamide] | 7 nM | 4 nM | 4 nM |  | 4 nM
O=C(Nc1ccc(F)c(-n2cc3cc(N4CC(F)C4)cnc3n2)c1)N1CC(F)C1 [Compound 291, 3-fluoro-N-{4-fluoro-3-[5-(3-fluoroazetidin-1-yl)-2H-pyrazolo[3,4-b]pyridin-2-yl]phenyl}azetidine-1-carboxamide] | 10 nM | 5 nM | 5 nM |  | 5 nM
O=C(Nc1ccc(F)c(-n2cc3cc(N4CC(F)C4)cnc3n2)c1)N1CCC1 [Compound 292, N-{4-fluoro-3-[5-(3-fluoroazetidin-1-yl)-2H-pyrazolo[3,4-b]pyridin-2-yl]phenyl}azetidine-1-carboxamide] | 5 nM | 8 nM | 3 nM |  | 5 nM
O=C(Nc1ccc(F)c(-n2cc3cc(C4CCNCC4)cnc3n2)c1)N1CC(F)C1 [Compound 293, 3-fluoro-N-{4-fluoro-3-[5-(piperidin-4-yl)-2H-pyrazolo[3,4-b]pyridin-2-yl]phenyl}azetidine-1-carboxamide] | 6820 nM | 17600 nM | 1210 nM | 167 nM | 
O=C(Nc1ccc(F)c(-n2cc3cc(-c4cnccn4)cnc3n2)c1)N1CC(F)C1 [Compound 294, 3-fluoro-N-{4-fluoro-3-[5-(pyrazin-2-yl)-2H-pyrazolo[3,4-b]pyridin-2-yl]phenyl}azetidine-1-carboxamide] | 4 nM | 4 nM | 5 nM | 5 nM | 
O=C(Nc1ccc(F)c(-n2cc3cc(-c4c[nH]cn4)cnc3n2)c1)N1CC(F)C1 [Compound 295, 3-fluoro-N-{4-fluoro-3-[5-(1H-imidazol-4-yl)-2H-pyrazolo[3,4-b]pyridin-2-yl]phenyl}azetidine-1-carboxamide] | 292 nM | 1970 nM | 4290 nM | 38 nM | 
O=C(Nc1ccc(F)c(-n2cc3cc(C4CCN(Cc5ccccc5)CC4)cnc3n2)c1)N1CC(F)C1 [Compound 296, N-{3-[5-(1-benzylpiperidin-4-yl)-2H-pyrazolo[3,4-b]pyridin-2-yl]-4-fluorophenyl}-3-fluoroazetidine-1-carboxamide] | 216 nM | 2 nM | 5 nM | 5 nM | 
O=C(Nc1ccc(F)c(-n2cc3cc(N4CC(F)(F)C4)cnc3n2)c1)N1CC(F)C1 [Compound 298, N-{3-[5-(3,3-difluoroazetidin-1-yl)-2H-pyrazolo[3,4-b]pyridin-2-yl]-4-fluorophenyl}-3-fluoroazetidine-1-carboxamide] | 14 nM | 4 nM | 4 nM | 4 nM | 
O=C(Nc1ccc(F)c(-n2cc3cc(N4CC(F)(F)C4)cnc3n2)c1)N1CC(F)(F)C1 [Compound 299, N-{3-[5-(3,3-difluoroazetidin-1-yl)-2H-pyrazolo[3,4-b]pyridin-2-yl]-4-fluorophenyl}-3,3-difluoroazetidine-1-carboxamide] | 29 nM | 7 nM | 14 nM | 5 nM | 
